From ChEMBL document CHEMBL2021832, “On the search for potential anti-Trypanosoma cruzi drugs: synthesis and biological evaluation of 2-hydroxy-3-methylamino and 1,2,3-triazolic naphthoquinoidal compounds obtained by click chemistry reactions” (Eur J Med Chem, 2012) come the findings set out here.

Active and inactive are the calls of the source. The rule behind the calls is not given here. Where only a bound is given, the exact number is not on record here.

Series [1] deals with Trypanosoma cruzi. The series is described as follows: Trypanocidal activity against bloodstream form of Trypanosoma cruzi Y isolated from albino mouse blood after 24 hrs by neubauer chamber analysis. Type of series: functional, organism-based.
For the next series, the system named is Biomphalaria glabrata. The series is described as follows: Molluscicidal activity against Biomphalaria glabrata. Type of series: functional, organism-based.
Series [2] can be described thus: Cytotoxicity against mouse embryo HMC after 24 hrs by Alamar blue assay. To be noted: mouse embryo HMC cells, read-out: LC50.
Series [3] is described as follows: Selectivity index, ratio of LC50 for mouse embryo HMC to IC50 for bloodstream form of Trypanosoma cruzi Y.
Series [4] concerns Trypanosoma cruzi. Nature of the series: Ratio of benznidazole IC50 to compound IC50 for bloodstream form of Trypanosoma cruzi Y. Type of series: functional.

The term IC50 denotes the concentration that gives 50% inhibition. Low readings indicate inhibition by little substance, high ones a need for much substance. For the compound `CCCN(CCC)CC1=C(O)C(=O)c2ccccc2C1=O`, the IC50 in the series with Trypanosoma cruzi [1] was 206 µM. Further, the result with Biomphalaria glabrata was Active.

For the compound `COc1ccc(-c2cn(C3C4=C(OC3(C)C)c3ccccc3C(=O)C4=O)nn2)cc1` (stereo not given), it took 359 µM to reach half-maximal inhibition in the series with Trypanosoma cruzi [1] (IC50).

The compound `CC1(C)CC2=C(O1)c1ccccc1C(=O)C2=O` [NOR-BETA-LAPACHONE] had an IC50 with Trypanosoma cruzi [1] of over 4800 µM. With `CC(C)=CCC1=C(OS(C)(=O)=O)C(=O)c2ccccc2C1=O`, the CC50 at 24 h in series [2] turned out to be 16.7 µM. Moreover, in the series on Trypanosoma cruzi [1], the midpoint of inhibition, the IC50, lay at 25.7 µM. Further, the Ratio LC50/IC50 in series [3] came out at 0.6. As to `Cc1ccc(-c2cn(C3C4=C(OC3(C)C)c3ccccc3C(=O)C4=O)nn2)cc1` (stereo not given), the “Ratio IC50” value in the series on Trypanosoma cruzi [4] was 2.5. The compound further yielded an IC50 in the series with Trypanosoma cruzi [1] of 39.6 µM. In the series with Trypanosoma cruzi [1], `O=C1C(O)=C(CN2CCCC2)C(=O)c2ccccc21` showed an IC50 of 396 µM. Also, the outcome in the series with Biomphalaria glabrata was Active. In the series on Trypanosoma cruzi [1], `O=C1C=C(O)C(=O)c2ccccc21` [LAWSONE] yielded an IC50 of over 2500 µM.

As for `CC1(C)OC2=C(C(=O)C(=O)c3ccccc32)C1n1cc(-c2ccc([N+](=O)[O-])cc2)nn1` (stereo not given), the “Ratio IC50” value in the series with Trypanosoma cruzi [4] came out at 2.5. This compound also came in with a concentration for half-maximal inhibition (IC50) with Trypanosoma cruzi [1] of 21.8 µM. Compound `O=C1C(Cl)=C(n2cc(-c3ccccc3)nn2)C(=O)c2ccccc21` registered an IC50 in the series with Trypanosoma cruzi [1] of 42 µM. As for `[N-]=[N+]=NC1=C(Cl)C(=O)c2ccccc2C1=O`, the “Ratio IC50” value in the series with Trypanosoma cruzi [4] was determined as 2. This compound also had a half-inhibitory concentration (IC50) with Trypanosoma cruzi [1] of 51.8 µM. As for `O=C1C=C(Cl)C(=O)c2ccccc21`, the CC50 at 24 h in series [2] is 41.3 µM. For the same compound, the half-maximal inhibitory concentration (IC50) in the series on Trypanosoma cruzi [1] turned out to be 12.3 µM. The Ratio LC50/IC50 in series [3] was found to be 3.6. In the series on Trypanosoma cruzi [1], `COc1ccc(-c2cn(C3=CC(=O)c4ccccc4C3=O)nn2)cc1` registered an IC50 of 45.8 µM. Same read-out and setting: for `Cc1ccc(-c2cn(C3=CC(=O)c4ccccc4C3=O)nn2)cc1` the value was 113 µM; for `[N-]=[N+]=NC1=CC(=O)c2ccccc2C1=O`, 41.6 µM.

For the compound `O=C1C(O)=C(CNC2CCCC2)C(=O)c2ccccc21`, in the series on Trypanosoma cruzi [1], the IC50 was 361 µM. Moreover, the outcome in the series on Biomphalaria glabrata was Active. In the series on Trypanosoma cruzi [1], `CCOC(=O)c1cn(C2=CC(=O)c3ccccc3C2=O)nn1` came in with an IC50 of 67.6 µM. As to `CC(C)(O)c1cn(C2=CC(=O)c3ccccc3C2=O)nn1`, the midpoint of inhibition in the series on Trypanosoma cruzi [1], the IC50, lay at 80.2 µM. `O=C1C(O)=C(CN2CC3CCC2CC3)C(=O)c2ccccc21` registered an IC50 in the series with Trypanosoma cruzi [1] of 397 µM. The result in the series with Biomphalaria glabrata was Active. For the compound `O=C1C=C(n2cc(CO)nn2)C(=O)c2ccccc21`, the CC50 at 24 h in series [2] was determined as 107 µM. In addition, the “Ratio IC50” value in the series with Trypanosoma cruzi [4] turned out to be 5.8. This compound displayed an IC50 with Trypanosoma cruzi [1] of 17.7 µM. In addition, the Ratio LC50/IC50 in series [3] stood at 6.1.

Compound `O=C1C=C(n2cc(-c3ccc([N+](=O)[O-])cc3)nn2)C(=O)c2ccccc21` showed an IC50 in the series with Trypanosoma cruzi [1] of 2010 µM.

`CC1(C)OC2=C(C(=O)C(=O)c3ccccc32)C1n1cc(-c2ccc(F)cc2)nn1` (stereo not given): the “Ratio IC50” value with Trypanosoma cruzi [4] is 2.5. The compound further came in with an IC50 in the series on Trypanosoma cruzi [1] of 20.8 µM. Take `CC(C)=CCC1=C(OS(=O)(=O)c2ccc(C)cc2)C(=O)c2ccccc2C1=O`: the midpoint of inhibition with Trypanosoma cruzi [1], the IC50, lay at 158 µM. In the series with Trypanosoma cruzi [1], `CC1(C)OC2=C(C(=O)C(=O)c3ccccc32)C1n1cc(-c2ccc(Br)cc2)nn1` (stereo not given) came in with an IC50 of 102 µM. The same measure, in the same setting: to `O=C1C=C(n2cc(-c3ccc(Br)cc3)nn2)C(=O)c2ccccc21` belongs 492 µM.

Take `O=C1C=C(n2cc(-c3ccccc3)nn2)C(=O)c2ccccc21`: the CC50 at 24 h in series [2] is 206 µM. The “Ratio IC50” value in the series with Trypanosoma cruzi [4] is 9.5. Besides, in the series with Trypanosoma cruzi [1], the IC50 was found to be 10.9 µM. In addition, in series [3], the Ratio LC50/IC50 came out at 18.9.

Regarding `CC(C)(CO)NCC1=C(O)C(=O)c2ccccc2C1=O`, the IC50 in the series on Trypanosoma cruzi [1] amounted to 370 µM. Moreover, in the series on Biomphalaria glabrata, the result was Active.
